Patent publication US8829034B2, “Compounds which modulate the CB2 receptor” (Boehringer Ingerlheim International GmbH, priority 2006, dated 2014)
Read-outs that look alike come from different tables or passages of the source.

Target: T1, human CB2R (Homo sapiens, UniProt P34972)
T1 construct: host or cells: CHO cells
Test: CB2R mediated modulation of cAMP synthesis
Assay type: cell-based
Conditions: for agonistic activity: found through the use of the above described assays
Outline: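 CHO cells expressing human CB2R were treated with compound for 30 min at 37 °C in buffer containing 1 mM IBMX, 0.25% BSA and 10 uM forskolin. cAMP was measured after lysis. EC50 was taken as 50% inhibition of forskolin-stimulated cAMP, with 100% defined by 1 uM CP55940, using a four-parameter logistic fit.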

[1] = CHO cells expressing human CB2R, inhibition of forskolin-stimulated cAMP synthesis, compounds having agonist activity, read-out: CB2 EC50

T1 sequence (P34972 whole entry): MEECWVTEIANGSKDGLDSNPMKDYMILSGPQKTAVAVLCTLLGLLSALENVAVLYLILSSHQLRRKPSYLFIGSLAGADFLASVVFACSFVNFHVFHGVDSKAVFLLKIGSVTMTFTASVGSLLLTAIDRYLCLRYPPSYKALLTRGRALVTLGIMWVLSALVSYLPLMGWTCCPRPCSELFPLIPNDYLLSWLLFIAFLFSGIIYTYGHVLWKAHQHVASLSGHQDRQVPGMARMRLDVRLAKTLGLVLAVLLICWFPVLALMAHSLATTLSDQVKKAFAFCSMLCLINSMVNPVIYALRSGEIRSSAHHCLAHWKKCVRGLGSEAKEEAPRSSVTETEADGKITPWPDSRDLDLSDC

Structure (SMILES) | agonistic activity | EC50 [nM] | EC50 [1] [nM]
CCCS(=O)(=O)C(C)(C)C(=O)Nc1cc(C(C)(C)C)nn1C [N-(5-tert-Butyl-2-methyl-2H-pyrazol-3-yl)-2-methyl-2-(propane-1-sulfonyl)-propionamide] | agonistic activity |  | 
CC(C)(C)c1cc(NC(=O)C(C)(C)S(=O)(=O)C2(C)CCOCC2)no1 [N-(5-tert-Butyl-isoxazol-3-yl)-2-methyl-2-(4-methyl-tetrahydro-pyran-4-sulfonyl)-propionamide] | agonistic activity | 9.4 | 
CCCS(=O)(=O)C(C)(C)C(=O)Nc1cc(C(C)(C)C)no1 [N-(3-tert-Butyl-isoxazol-5-yl)-2-methyl-2-(propane-1-sulfonyl)-propionamide] | agonistic activity | 89.7 | 
CCCS(=O)(=O)C(C)(C)C(=O)Nc1nc(C)c(C(C)(C)C)s1 [N-(5-tert-Butyl-4-methyl-thiazol-2-yl)-2-methyl-2-(propane-1-sulfonyl)-propionamide] | agonistic activity | 7.2 | 
CC(C)(C)c1cc(NC(=O)C(C)(C)S(C)(=O)=O)no1 [N-(5-tert-Butyl-isoxazol-3-yl)-2-methanesulfonyl-2-methyl-propionamide] | agonistic activity |  | 
CCC(C)S(=O)(=O)C(C)(C)C(=O)Nc1nc(C(C)(C)C)cs1 (centres unmarked) [2-(Butane-2-sulfonyl)-N-(4-tert-butyl-thiazol-2-yl)-2-methyl-propionamide] | agonistic activity |  | 14.4
CC(C)(C)c1cc(NC(=O)C(C)(C)S(=O)(=O)CC2CCCCC2)on1 [N-(3-tert-Butyl-isoxazol-5-yl)-2-cyclohexylmethanesulfonyl-2-methyl-propionamide] | agonistic activity | 0.1 | 
CC(C)S(=O)(=O)C(C)(C)C(=O)Nc1cc(-c2ccccc2)nn1C [2-Methyl-N-(2-methyl-5-phenyl-2H-pyrazol-3-yl)-2-(propane-2-sulfonyl)-propionamide] | agonistic activity |  | 
CC(C)(C(=O)Nc1ccc(C(F)(F)F)cn1)S(=O)(=O)C1CCOCC1 [2-Methyl-2-(tetrahydro-pyran-4-sulfonyl)-N-(5-trifluoromethyl-pyridin-2-yl)-propionamide] | agonistic activity | 62.4 | 
CCCS(=O)(=O)C(C)(C)C(=O)Nc1nc2c(s1)CCCC2 [2-Methyl-2-(propane-1-sulfonyl)-N-(4,5,6,7-tetrahydro-benzothiazol-2-yl)-propionamide] | agonistic activity |  | 
Cn1nc(C(C)(C)C)cc1NC(=O)C(C)(C)S(C)(=O)=O [N-(5-tert-Butyl-2-methyl-2H-pyrazol-3-yl)-2-methanesulfonyl-2-methyl-propionamide] | agonistic activity |  | 
CC(C)(C)S(=O)(=O)C(C)(C)C(=O)Nc1cccc(C(F)(F)F)n1 [2-Methyl-2-(2-methyl-propane-2-sulfonyl)-N-(6-trifluoromethyl-pyridin-2-yl)-propionamide] | agonistic activity |  | 
CC(C)S(=O)(=O)C(C)(C)C(=O)Nc1cccc(C(C)(C)C)c1 [N-(3-tert-Butyl-phenyl)-2-methyl-2-(propane-2-sulfonyl)-propionamide] | agonistic activity |  | 
Cc1nc(NC(=O)C(C)(C)S(=O)(=O)Cc2ccc(Cl)cc2)sc1C(C)(C)C [N-(5-tert-Butyl-4-methyl-thiazol-2-yl)-2-(4-chloro-phenylmethanesulfonyl)-2-methyl-propionamide] | agonistic activity | 12.1 | 
CC(C)(C(=O)Nc1nc(C2CC2)cs1)S(=O)(=O)CC1CCOCC1 [N-(4-Cyclopropyl-thiazol-2-yl)-2-methyl-2-(tetrahydro-pyran-4-ylmethanesulfonyl)-propionamide] | agonistic activity |  | 
CC(C)(C)c1cc(NC(=O)C(C)(C)S(=O)(=O)CC#N)no1 [N-(5-tert-Butyl-isoxazol-3-yl)-2-cyanomethanesulfonyl-2-methyl-propionamide] | agonistic activity |  | 
CC(C)C(C(=O)Nc1nc(C(C)(C)C)cs1)S(=O)(=O)C(C)C (centres unmarked) [N-(4-tert-Butyl-thiazol-2-yl)-3-methyl-2-(propane-2-sulfonyl)-butyramide] | agonistic activity |  | 
CC(C)S(=O)(=O)C(C)(C)C(=O)Nc1nc(-c2ccncc2)cs1 [2-Methyl-2-(propane-2-sulfonyl)-N-(4-pyridin-4-yl-thiazol-2-yl)-propionamide] | agonistic activity |  | 
CCCS(=O)(=O)C(C)(C)C(=O)Nc1ccc(C(C)(C)C)cc1 [N-(4-tert-Butyl-phenyl)-2-methyl-2-(propane-1-sulfonyl)-propionamide] | agonistic activity | 12.3 | 
CC(C)(C)c1cc(NC(=O)C(C)(C)S(=O)(=O)C2CCCC2)on1 [N-(3-tert-Butyl-isoxazol-5-yl)-2-cyclopentanesulfonyl-2-methyl-propionamide] | agonistic activity | 0.9 | 

Structure (SMILES) | agonistic activity | EC50 [nM] | EC50 [1] [nM]
CC(C)(C(=O)Nc1cccc(C(F)(F)F)c1)S(=O)(=O)CC1CCOCC1 [2-Methyl-2-(tetrahydro-pyran-4-ylmethanesulfonyl)-N-(3-trifluoromethyl-phenyl)-propionamide] | agonistic activity |  | 
Cc1nc(NC(=O)C(C)(C)S(=O)(=O)C(C)(C)C)sc1C(C)(C)C [N-(5-tert-Butyl-4-methyl-thiazol-2-yl)-2-methyl-2-(2-methyl-propane-2-sulfonyl)-propionamide] | agonistic activity | 10.7 | 
CC(C)(C(=O)Nc1ccc2ccccc2n1)S(=O)(=O)CC1CCOCC1 [2-Methyl-N-quinolin-2-yl-2-(tetrahydro-pyran-4-ylmethanesulfonyl)-propionamide] | agonistic activity | 5.8 | 
CC(C)(C(=O)Nc1ccc(C(F)(F)F)cn1)S(=O)(=O)CC1CCC1 [2-Cyclobutylmethanesulfonyl-2-methyl-N-(5-trifluoromethyl-pyridin-2-yl)-propionamide] | agonistic activity |  | 
CCCS(=O)(=O)C(C)(C)C(=O)Nc1nc(C(C)(C)C)cs1 [N-(4-tert-Butyl-thiazol-2-yl)-2-methyl-2-(propane-1-sulfonyl)-propionamide] | agonistic activity | 19.2 | 
CCCS(=O)(=O)C(C)(C)C(=O)Nc1nc(-c2ccccc2)c(C)s1 [2-Methyl-N-(5-methyl-4-phenyl-thiazol-2-yl)-2-(propane-1-sulfonyl)-propionamide] | agonistic activity | 52.2 | 
CC(C)S(=O)(=O)C(C)(C)C(=O)Nc1nc(C(C)(C)C)cs1 [N-(4-tert-Butyl-thiazol-2-yl)-2-methyl-2-(propane-2-sulfonyl)-propionamide] | agonistic activity |  | 
CC(C)(C)c1cc(NC(=O)C(C)(C)S(=O)(=O)C2CCCCC2)on1 [N-(3-tert-Butyl-isoxazol-5-yl)-2-cyclohexanesulfonyl-2-methyl-propionamide] | agonistic activity |  | 
CC(C)S(=O)(=O)C(C)(C)C(=O)Nc1cnc2ccccc2c1 [2-Methyl-2-(propane-2-sulfonyl)-N-quinolin-3-yl-propionamide] | agonistic activity |  | 
CC(C)(C)c1cc(NC(=O)C(C)(C)S(=O)(=O)C2CCOCC2)no1 [N-(5-tert-Butyl-isoxazol-3-yl)-2-methyl-2-(tetrahydro-pyran-4-sulfonyl)-propionamide] | agonistic activity |  | 0.7
CC(C)(C)c1csc(NC(=O)C(C)(C)S(=O)(=O)C2CCOCC2)n1 [N-(4-tert-Butyl-thiazol-2-yl)-2-methyl-2-(tetrahydro-pyran-4-sulfonyl)-propionamide] | agonistic activity |  | 12.4
CC(C)(C(=O)Nc1ccc(C(F)(F)F)cn1)S(=O)(=O)C1CCCCC1 [2-Cyclohexanesulfonyl-2-methyl-N-(5-trifluoromethyl-pyridin-2-yl)-propionamide] | agonistic activity | 11.8 | 
CC(C)c1cc(NC(=O)C(C)(C)S(=O)(=O)CC2CCOCC2)n(C)n1 [N-(5-Isopropyl-2-methyl-2H-pyrazol-3-yl)-2-methyl-2-(tetrahydro-pyran-4-ylmethanesulfonyl)-propionamide] | agonistic activity |  | 
CCCS(=O)(=O)C(C)(C)C(=O)Nc1nc(-c2ccncc2)cs1 [2-Methyl-2-(propane-1-sulfonyl)-N-(4-pyridin-4-yl-thiazol-2-yl)-propionamide] | agonistic activity |  | 
Cn1nc(C(C)(C)C)cc1NC(=O)C(C)(C)S(=O)(=O)C1CCCC1 [N-(5-tert-Butyl-2-methyl-2H-pyrazol-3-yl)-2-cyclopentanesulfonyl-2-methyl-propionamide] | agonistic activity |  | 
CC(C)(C)c1cc(NC(=O)C(C)(C)S(=O)(=O)CC2CCCCC2)no1 [N-(5-tert-Butyl-isoxazol-3-yl)-2-cyclohexylmethanesulfonyl-2-methyl-propionamide] | agonistic activity | 0.6 | 
CC(C)(C)c1cc(NC(=O)C(C)(C)S(=O)(=O)C2CC2)no1 [N-(5-tert-Butyl-isoxazol-3-yl)-2-cyclopropanesulfonyl-2-methyl-propionamide] | agonistic activity |  | 
Cc1ccc(NC(=O)C(C)(C)S(=O)(=O)CC2CCOCC2)nc1 [2-Methyl-N-(5-methyl-pyridin-2-yl)-2-(tetrahydro-pyran-4-ylmethanesulfonyl)-propionamide] | agonistic activity |  | 
Cn1nc(C(C)(C)C)cc1NC(=O)C(C)(C)S(=O)(=O)CC1CCCCO1 (centres unmarked) [N-(5-tert-Butyl-2-methyl-2H-pyrazol-3-yl)-2-methyl-2-(tetrahydro-pyran-2-ylmethanesulfonyl)-propionamide] | agonistic activity |  | 
